Experimental data taken from US10881642B2, “Autophagy enhancer and use thereof” (Industry-Academic Cooperation Foundation, Yonsei University, priority 2016, dated 2021).

Test system: ob/ob mice
Assay: In vivo autophagic flux and TFEB-related gene expression in liver
Description: FIG. 7A is the result of the experiment in which ob/ob mice were peritoneally injected with 30 mg/kg leupeptin and then after 1 hr, vehicle control or MSL compound were peritoneally administered. Three hours post administration, the liver lysates were prepared and immunoblotted. The numbers above the bands indicates fold changes normalized to beta actin bands. FIG. 7B indicates the concentration of mRNA of TFEB related genes measured by performing RT-PCT using a total RNA isolated from liver sample treated same as above except that Leupeptin was not administered. The values represent mean±S.D of fold changes compared to control mice (vehicle control) obtained from three mice.
Screening of autophagy enhancer. […] Luciferase assay. Firefly and Renilla luciferase assays were conducted using the Dual-Luciferase Reporter Assay System (Promega) according to the manufacturer's recommendation. In brief, cells were lysed in 1× lysis buffer and subjected to a single round of freezing/thawing. Firefly luciferase was determined after mixing 5 μl of lysate with 25 μl of Luciferase Assay Reagent II. Renilla luciferase was then determined after further addition of 20 ul of Stop&Glo Reagent. Cell culture and media and drugs treatment. […] Cytotoxicity was determined by the measurement of LDH release in cell culture media using the LDH kit (Roche), according to the protocol from the manufacturer. […] Imaging and image quantification. […] Formation of acidic vesicular organelles was quantitated by staining the cells with acridine orange (Invitrogen, 5 ug/ml, 10 min). […] Cells or tissues were solubilized in lysis buffer supplemented with protease and phosphatase inhibitors and protein concentration was measured by the Bradford method. Ten to 30 micrograms were loaded on 4-12% Bis-Tris gel (NUPAGE, Invitrogen) or 8-15% SDS-PAGE, transferred to PVDF membranes and analyzed by western blot using the ECL method (Pierce). […] Protein levels were quantified by using ImageJ software analysis. […]

## CSc1oc(-c2ccccc2)nc1S(=O)(=O)c1ccc(F)cc1 [MSL]
After 8 weeks of administration
  autophagic activity in the liver measured after leupeptin administration: increased
After pretreatment with leupeptin
  LC3-I to -II conversion in the liver: increased
liver, compared to controls
  expression of TFEB-regulated genes: significantly higher
